≈ marks a conversion by molar mass, not a printed value.
Assays:
[1] = Compound solubility in water; type: physicochemical
acid ceramidase (hACR) = biological target: T1, acid ceramidase (hACR) (Homo sapiens, UniProt Q13510); experiment: Acid ceramidase inhibition, biochemical fluorescent assay with cell lysates overexpressing acid ceramidase, substrate Rbm14-12; conditions: cell lysates overexpressing acid ceramidase; 1 hr preincubation at RT; pH 4.5; substrate Rbm14-12 6.3 μM; read-out: hACR IC50
T1 construct: expressed in transfected cells; cell lysate used
T1 sequence (Q13510 143-395 limits assumed): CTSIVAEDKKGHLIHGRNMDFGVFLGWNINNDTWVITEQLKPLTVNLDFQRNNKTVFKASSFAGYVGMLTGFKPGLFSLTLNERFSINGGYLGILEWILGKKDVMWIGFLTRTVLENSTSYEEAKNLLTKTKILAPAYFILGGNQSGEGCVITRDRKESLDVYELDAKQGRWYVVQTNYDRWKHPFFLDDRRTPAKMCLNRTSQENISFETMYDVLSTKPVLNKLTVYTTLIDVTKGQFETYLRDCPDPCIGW
T1 sequence (Q13510 22-142 limits assumed): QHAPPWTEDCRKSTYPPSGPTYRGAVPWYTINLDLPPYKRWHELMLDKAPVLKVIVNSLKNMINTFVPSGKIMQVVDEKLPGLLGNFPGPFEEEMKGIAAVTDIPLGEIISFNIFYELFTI
Procedure, shortened: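 Enzyme source was lysate (10 µg protein) from cells overexpressing acid ceramidase, preincubated 1 hr at RT with compound dose series in 25 mM NaAc, 100 mM NaCl, pH 4.5. Rbm14-12 (6.3 μM final) reacted 1 hr at RT; stop buffer (methanol, NaIO4, glycine, pH 10.6) 1 hr, fluorescence ex360/em446; IC50 from four-parameter fit.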

For CC1(C)CC(=O)c2ccccc2N1C(=O)NCCc1ccccc1 [Example 28, 2,2-Dimethyl-4-oxo-N-phenethyl-3,4-dihydroquinoline-1(2H)-carboxamide], the solubility [1] was 3.1 µM (≈ 0.999 µg/mL) and the IC50 (acid ceramidase (hACR)) was over 1000 nM.

Work on CCCCCNC(=O)N1[C@H](C)CN(C2CC2)C[C@@H]1C [Example 115, (2S,6R)-4-cyclopropyl-2,6-dimethyl-N-pentylpiperazine-1-carboxamide] yielded a solubility [1] of 69.1 µM (≈ 18.5 µg/mL) and an IC50 (acid ceramidase (hACR)) of under 200 nM.

Work on CC1(C)CC(c2ccccn2)CCN1C(=O)NCCCCc1ccccc1 (stereo not drawn) [Example 79, 2,2-Dimethyl-N-(4-phenylbutyl)-4-(2-pyridyl)piperidine-1-carboxamide] yielded a solubility [1] of 6.4 µM (≈ 2.34 µg/mL) and an IC50 (acid ceramidase (hACR)) of over 1000 nM.

CC1(C)CCCCN1C(=O)NCCCc1ccccc1 [Example 40, 2,2-Dimethyl-N-(3-phenylpropyl)piperidine-1-carboxamide] gave a solubility [1] of 23.4 µM (≈ 6.42 µg/mL) and an IC50 (acid ceramidase (hACR)) of under 200 nM.

With CN1CCC(c2cccc3c2CCC(C)(C)N3C(=O)NCCc2ccccc2)CC1 [Example 2, 2,2-Dimethyl-5-(1-methylpiperidin-4-yl)-N-phenethyl-3,4-dihydroquinoline-1(2H)-carboxamide] the solubility [1] was 36.5 µM (≈ 14.8 µg/mL) and the IC50 (acid ceramidase (hACR)) was under 200 nM.

CC1(C)CC(F)=CCN1C(=O)NCCCC1(C(F)(F)F)CC1 [Example 73, 4-fluoro-2,2-Dimethyl-N-(3-(1-(trifluoromethyl)cyclopropyl)propyl)-3,6-dihydropyridine-1(2H)-carboxamide] gave a solubility [1] of 4.3 µM (≈ 1.39 µg/mL) and an IC50 (acid ceramidase (hACR)) of over 1000 nM.

With CC1(C)CCc2ccc(N3CCOCC3)cc2N1C(=O)NCCc1ccccc1 [Example 10, 2,2-Dimethyl-7-morpholino-N-phenethyl-3,4-dihydroquinoline-1(2H)-carboxamide] the solubility [1] was 6.7 µM (≈ 2.64 µg/mL) and the IC50 (acid ceramidase (hACR)) was over 1000 nM.

Compound CN1CC(c2cccc3c2CCC(C)(C)N3C(=O)NCc2ccccc2)C1 [Example 66, N-Benzyl-2,2-dimethyl-5-(1-methylazetidin-3-yl)-3,4-dihydroquinoline-1(2H)-carboxamide] has a solubility [1] of 38.5 µM (≈ 14 µg/mL) and an IC50 (acid ceramidase (hACR)) of 200 to 1000 nM.

With CC1(C)c2ncccc2CCN1C(=O)NCCc1ccccc1 [Example 14, 8,8-Dimethyl-N-phenethyl-5,6-dihydro-1,7-naphthyridine-7(8H)-carboxamide] the solubility [1] was 24 µM (≈ 7.43 µg/mL) and the IC50 (acid ceramidase (hACR)) was over 1000 nM.

Cn1ccnc1-c1cccc2c1CCC(C)(C)N2C(=O)NCCc1ccccc1 [Example 13, 2,2-Dimethyl-5-(1-methyl-1H-imidazol-2-yl)-N-phenethyl-3,4-dihydroquinoline-1(2H)-carboxamide] showed a solubility [1] of 33.6 µM (≈ 13.1 µg/mL) and an IC50 (acid ceramidase (hACR)) of over 1000 nM.

CN1CC(c2ccc3c(c2)N(C(=O)NCc2ccccc2)C(C)(C)CC3)C1 [Example 65, N-benzyl-2,2-dimethyl-7-(1-methylazetidin-3-yl)-3,4-dihydroquinoline-1(2H)-carboxamide] showed a solubility [1] of 40.2 µM (≈ 14.6 µg/mL) and an IC50 (acid ceramidase (hACR)) of 200 to 1000 nM.

With CCCCNC(=O)N1c2cccc(C3CCN(C)CC3)c2CCC1(C)C [Example 24, N-Butyl-2,2-dimethyl-5-(1-methylpiperidin-4-yl)-3,4-dihydroquinoline-1(2H)-carboxamide] the solubility [1] was 40.6 µM (≈ 14.5 µg/mL) and the IC50 (acid ceramidase (hACR)) was 200 to 1000 nM.

With O=C(NCCCc1ccc(F)cc1F)N1CCCCC12CCCC2 [Example 59, N-(3-(2,4-difluorophenyl)propyl)-6-azaspiro[4.5]decane-6-carboxamide] the solubility [1] was 1.1 µM (≈ 0.37 µg/mL) and the IC50 (acid ceramidase (hACR)) was under 200 nM.

With COc1ccc(C2COCC(C)(C)N2C(=O)NCCC(F)(F)F)cc1 (stereo not drawn) [Example 153, 5-(4-Methoxyphenyl)-3,3-dimethyl-N-(3,3,3-trifluoropropyl)morpholine-4-carboxamide] the solubility [1] was 79.2 µM (≈ 28.5 µg/mL) and the IC50 (acid ceramidase (hACR)) was 200 to 1000 nM.

For CC1(C)CCc2ncccc2N1C(=O)NCCc1ccccc1 [Example 9, 2,2-Dimethyl-N-phenethyl-3,4-dihydro-1,5-naphthyridine-1(2H)-carboxamide], the solubility [1] was 25.2 µM (≈ 7.8 µg/mL) and the IC50 (acid ceramidase (hACR)) was over 1000 nM.

Compound CC(=O)N1CC(c2ccc3c(c2)N(C(=O)NCCc2ccccc2)C(C)(C)CC3)C1 [Example 70, 7-(1-Acetylazetidin-3-yl)-2,2-dimethyl-N-phenethyl-3,4-dihydroquinoline-1(2H)-carboxamide] has a solubility [1] of 15.6 µM (≈ 6.33 µg/mL) and an IC50 (acid ceramidase (hACR)) of 200 to 1000 nM.

With O=C(NCCc1ccccc1)N1CCCCC12CCC2 [Example 46, N-Phenethyl-5-azaspiro 3.5 nonane-5-carboxamide] the solubility [1] was 17.5 µM (≈ 4.77 µg/mL) and the IC50 (acid ceramidase (hACR)) was over 1000 nM.

Compound CCCCNC(=O)N1CCN(C2CCCN(C)C2)CC1(C)C (stereo not drawn) [Example 38] has a solubility [1] of 35.8 µM (≈ 11.1 µg/mL) and an IC50 (acid ceramidase (hACR)) of over 1000 nM.

CN1CCN(c2cccc3c2CCC(C)(C)N3C(=O)NCCc2ccccc2)CC1 [Example 29, 2,2-Dimethyl-5-(4-methylpiperazin-1-yl)-N-phenethyl-3,4-dihydroquinoline-1(2H)-carboxamide] showed a solubility [1] of 31.7 µM (≈ 12.9 µg/mL) and an IC50 (acid ceramidase (hACR)) of over 1000 nM.

For CC1(C)CCc2ccc(C3COC3)cc2N1C(=O)NCCc1ccccc1 [Example 52], the solubility [1] was 5 µM (≈ 1.82 µg/mL) and the IC50 (acid ceramidase (hACR)) was 200 to 1000 nM.

In the case of CC1(C)COCCN1C(=O)NCCc1ccccc1 [Example 53, 3,3-Dimethyl-N-phenethylmorpholine-4-carboxamide], the solubility [1] is reported as 25.6 µM (≈ 6.72 µg/mL) and the IC50 (acid ceramidase (hACR)) is reported as over 1000 nM.

For CCCCCNC(=O)N1C(c2ccc(OC)cc2)COCC1(C)C (stereo not drawn) [Example 156, 5-(4-Methoxyphenyl)-3,3-dimethyl-N-pentylmorpholine-4-carboxamide], the solubility [1] was 91 µM (≈ 30.4 µg/mL) and the IC50 (acid ceramidase (hACR)) was under 200 nM.

For CC1(C)CCCCN1C(=O)NCCc1ccccc1 [Example 25, 2,2-Dimethyl-N-phenethylpiperidine-1-carboxamide], the solubility [1] was 23.2 µM (≈ 6.04 µg/mL) and the IC50 (acid ceramidase (hACR)) was 200 to 1000 nM.

In the case of CC1(C)CC(c2ccccc2)CCN1C(=O)NCCc1ccccc1 (stereo not drawn) [Example 55, 2,2-Dimethyl-N-phenethyl-4-phenylpipridine-1-carboxamide], the solubility [1] is reported as 0.4 µM (≈ 0.135 µg/mL) and the IC50 (acid ceramidase (hACR)) is reported as under 200 nM.

CC1(C)CC(N2CCC(F)(F)CC2)CCN1C(=O)NCCCCc1ccccc1 (stereo not drawn) [Example 86, 4-(4,4-Difluoro-1-piperidyl)-2,2-dimethyl-N-(4-phenylbutyl)piperidine-1-carboxamide] gave a solubility [1] of 31 µM (≈ 12.6 µg/mL) and an IC50 (acid ceramidase (hACR)) of under 200 nM.

With CN1CCN(C(=O)NCCc2ccccc2)C(C)(C)C1 [Example 34, 2,2,4-Trimethyl-N-phenethylpiperazine-1-carboxamide] the solubility [1] was 23.6 µM (≈ 6.5 µg/mL) and the IC50 (acid ceramidase (hACR)) was over 1000 nM.

Work on CN1CCC(c2ccc3c(c2)N(C(=O)NCCc2ccccc2)C(C)(C)CC3)CC1 [Example 1, 2,2-Dimethyl-7-(1-methylpiperidin-4-yl)-N-phenethyl-3,4-dihydroquinoline-1(2H)-carboxamide] yielded a solubility [1] of 33.2 µM (≈ 13.5 µg/mL) and an IC50 (acid ceramidase (hACR)) of 200 to 1000 nM.

With CN1CCC(c2ccc3c(c2)CC(C)(C)N(C(=O)NCCc2ccccc2)C3)CC1 [Example 21, 3,3-Dimethyl-6-(1-methylpiperidin-4-yl)-N-phenethyl-3,4-dihydroisoquinoline-2(1H)-carboxamide] the solubility [1] was 34.2 µM (≈ 13.9 µg/mL) and the IC50 (acid ceramidase (hACR)) was over 1000 nM.

Compound CN(C(=O)NCCCc1ccccc1)C1CN2CCC1CC2 (stereo not drawn) [Example 64, 1-Methyl-3-(3-phenylpropyl)-1-(quinuclidin-3-yl)urea] has a solubility [1] of 35.4 µM (≈ 10.7 µg/mL) and an IC50 (acid ceramidase (hACR)) of over 1000 nM.

CC1(C)CC(F)(F)CCN1C(=O)NCCCc1ccccc1 [Example 61, 4,4-Difluoro-2,2-dimethyl-N-(3-phenylpropyl)piperidine-1-carboxamide] gave a solubility [1] of 25.7 µM (≈ 7.98 µg/mL) and an IC50 (acid ceramidase (hACR)) of under 200 nM.

For COc1ccc(C2COCC(C)(C)N2C(=O)NCC2CC2)cc1 (stereo not drawn) [Example 144, N-(Cyclopropylmethyl)-5-(4-methoxyphenyl)-3,3-dimethylmorpholine-4-carboxamide], the solubility [1] was 97.8 µM (≈ 31.1 µg/mL) and the IC50 (acid ceramidase (hACR)) was under 200 nM.

Compound CCOCCNC(=O)N1CCC(c2ccccc2)CC1(C)C (stereo not drawn) [Example 77, N-(2-Ethoxyethyl)-2,2-dimethyl-4-phenylpiperidine-1-carboxamide] has a solubility [1] of 64.3 µM (≈ 19.6 µg/mL) and an IC50 (acid ceramidase (hACR)) of over 1000 nM.

CC1(C)c2ccccc2CCN1C(=O)NCCc1ccccc1 [Example 15, 1,1-Dimethyl-N-phenethyl-3,4-dihydroisoquinoline-2(1H)-carboxamide] showed a solubility [1] of 0.9 µM (≈ 0.278 µg/mL) and an IC50 (acid ceramidase (hACR)) of over 1000 nM.

Work on CN(c1ccccc1)C1CCN(C(=O)NCCCCc2ccccc2)C(C)(C)C1.Cl (stereo not drawn) [Example 88, 2,2-Dimethyl-4-(N-methylanilino)-N-(4-phenylbutyl)piperidine-1-carboxamide hydrochloride] yielded a solubility [1] of 0.01 µM and an IC50 (acid ceramidase (hACR)) of over 1000 nM.

CCCCCNC(=O)N1C(C)COCC1(C)C (stereo not drawn) [Example 132, 3,3,5-Trimethyl-N-pentylmorpholine-4-carboxamide] showed a solubility [1] of 88.3 µM (≈ 21.4 µg/mL) and an IC50 (acid ceramidase (hACR)) of under 200 nM.

In the case of CC1(C)CCc2ccccc2N1C(=O)NCCOc1ccccc1 [Example 18, 2,2-Dimethyl-N-(2-phenoxyethyl)-3,4-dihydroquinoline-1(2)-carboxamide], the solubility [1] is reported as 1.5 µM (≈ 0.487 µg/mL) and the IC50 (acid ceramidase (hACR)) is reported as 200 to 1000 nM.

CC1(C)CC(c2ccccc2)CCN1C(=O)NCCCCc1ccccc1 (stereo not drawn) [Example 74, 2,2-Dimethyl-4-phenyl-N-(4-phenylbutyl)piperidine-1-carboxamide] showed a solubility [1] of 0.2 µM (≈ 0.0729 µg/mL) and an IC50 (acid ceramidase (hACR)) of under 200 nM.

Compound O=C(NCCCc1ccccc1)N1CCCCC12CCCC2 [Example 56, N-(3-Phenylpropyl)-6-azaspiro[4.5]decane-6-carboxamide] has a solubility [1] of 4.9 µM (≈ 1.47 µg/mL) and an IC50 (acid ceramidase (hACR)) of under 200 nM.

For CN1CCN(C2CCN(C(=O)NCCc3ccccc3)C(C)(C)C2)CC1 (stereo not drawn) [Example 26, 2,2-Dimethyl-4-(4-methylpiperazin-1-yl)-N-phenethylpiperidine-1-carboxamide], the solubility [1] was 43.7 µM (≈ 15.7 µg/mL) and the IC50 (acid ceramidase (hACR)) was over 1000 nM.
